System: age-related macular degeneration (AMD)
Experiment: PDT with verteporfin combined with scatter threshold laser coagulation therapy in eighteen patients with AMD or early stage AMD
Assay type: in vivo
Protocol: Eighteen patients ranging in age from 50-80 years of age, and either previously diagnosed with AMD or with early stage AMD have been treated using the inventive method. All of these patients experienced at least some loss of vision pre-treatment.
For PDT, verteporfin was the photosensitive agent and was administered intravenously at a dose of 1-2 mg/kg. Verteporfin was activated using a coherent laser with the red beam (krypton) at a wavelength of 640 nm. For laser coagulation therapy, the spot size was 200 μm and the duration was 0.4 seconds. The number of spots applied was between 150 and 350. The interval between PDT and laser coagulation therapy was 5 minutes to 24 hours.

Cases of laser-induced neovascularizations (verteporfin PDT plus laser coagulation therapy, patients receiving the inventive treatment): no cases
Substance: verteporfin
Patients with improved visual acuity, as assessed by accurate reading of a standard vision chart (verteporfin 1-2 mg/kg intravenously, activated at 640 nm, plus laser coagulation therapy 5 minutes to 24 hours apart, within six to eight weeks post-treatment, 18 patients): fifty
Incidence of the need for retreatment (verteporfin PDT plus laser coagulation therapy, entire patient population treated): zero
Patients whose vision remained stable, assessed by no further loss of visual acuity (verteporfin PDT plus laser coagulation therapy, over six to nine months, 18 patients): fifty

— US20050234531A1, “Method to treat age-related macular degeneration” (priority 2001, published 2005)
